# Data as given in patent publication US20090280483A1, “Methods for Screening Interleukin-6 (IL-6) Signal Transduction Inhibitors” (priority 2005, published 2009).
# What was measured:
# KT-3 cells = test: Negative screening: IL-6-dependent proliferation of KT-3 cells (FACS); format: cell-based; details: 10 μM (No. 4 at 2 μM), human IL-6 5 ng/ml, 48 hours
# Method: Human tumor cell line KT-3 cells known to have the property of proliferating by IL-6 stimulation were used for negative screening.
# KT-3 cells were grown to confluency, and plated on 6-well plates at 1×10^5 cells/well in RPMI medium supplemented with 10% fetal calf serum (FCS) containing human IL-6 (5 ng/ml). After incubation for 3 hours, dimethyl sulfoxide (DMSO) and the 18 compounds (Nos. 1-18) each at a final concentration of 10 μM (except for No. 4 at 2 μM) were added, and incubation was continued for 48 hours.
# The human tumor cell line KT-3 cells treated as above were suspended at about 1×10^6 cells/100 μl in RPMI medium supplemented with 10% FCS. Then, FSC/SSC dot plots of these cells were obtained by using FACS Calibur (Becton Dickinson).
# ERK1/2 = test: Western blotting of IL-6-induced phosphorylation of ERK1/2 in M1 cells; format: cell-based; details: murine IL-6 10 ng/ml, time course 0 to 24 hours
# STAT3 [1] = target: T1, STAT3 (Homo sapiens, UniProt P40763); test: Luciferase assay of IL-6-induced transcriptional activity of STAT3 in 293T cells; format: cell-based; details: GFAP promoter firefly luciferase reporter, 20 μM for 1 hour, then human IL-6 10 ng/ml for 16 hours
# T1 construct: Exponentially proliferating 293T cells cultured in Dulbecco's Modified Eagle's Medium; endogenous in cells; host or cells: 293T cells
# T1 sequence (P40763 whole entry): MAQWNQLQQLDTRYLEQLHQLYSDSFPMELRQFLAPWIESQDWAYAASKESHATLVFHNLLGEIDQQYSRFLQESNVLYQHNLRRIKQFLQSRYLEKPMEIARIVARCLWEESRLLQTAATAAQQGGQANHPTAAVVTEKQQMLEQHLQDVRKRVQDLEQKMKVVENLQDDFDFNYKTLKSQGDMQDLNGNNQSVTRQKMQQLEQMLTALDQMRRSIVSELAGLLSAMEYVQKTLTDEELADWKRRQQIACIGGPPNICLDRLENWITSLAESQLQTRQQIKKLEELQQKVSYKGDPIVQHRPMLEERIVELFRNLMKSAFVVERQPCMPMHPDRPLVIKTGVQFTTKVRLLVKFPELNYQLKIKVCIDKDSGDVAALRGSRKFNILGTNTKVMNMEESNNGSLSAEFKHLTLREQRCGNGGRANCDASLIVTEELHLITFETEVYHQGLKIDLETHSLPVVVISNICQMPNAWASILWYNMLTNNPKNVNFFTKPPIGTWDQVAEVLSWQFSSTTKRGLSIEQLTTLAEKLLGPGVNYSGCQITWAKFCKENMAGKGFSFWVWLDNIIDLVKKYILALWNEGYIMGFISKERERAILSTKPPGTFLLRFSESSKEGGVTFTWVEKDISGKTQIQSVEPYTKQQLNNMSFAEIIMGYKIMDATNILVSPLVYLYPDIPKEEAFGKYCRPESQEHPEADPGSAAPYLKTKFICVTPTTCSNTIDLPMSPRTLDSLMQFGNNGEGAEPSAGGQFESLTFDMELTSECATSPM
# Method: A reporter vector (2 μg) containing the firefly luciferase gene linked downstream of the glial fibrillary acidic protein (GFAP) gene promoter sequence and an internal control vector (0.1 μg) containing the EF1 gene promoter linked to the Renilla luciferase gene were transfected into 293T cells at 1×10^6 cells/well in 12-well plates using Lipofectamine Plus Reagent (Life Technologies, Bethesda, Md.) as instructed by the manufacturer. Twenty-three hours after the transfection, dimethyl sulfoxide (DMSO) and Compounds No. 1, 2, 4, 7, 10, 13, 14 and 16 each at a final concentration of 20 μM were added. One hour after the compounds were added, the cells treated with each compound were divided into two equal parts and stimulated or not with human IL-6 at a final concentration of 10 ng/ml. After 16 hours, cell extracts were prepared from the cells and measured for the specific activity of firefly luciferase to Renilla luciferase using Dual luciferase reporter system (Promega, Madison, Wis.).
# STAT3 [2] = target: T2, STAT3 (Mus musculus, UniProt P42227); test: Western blotting of IL-6-induced tyrosine phosphorylation of STAT3 in M1 cells; format: cell-based, murine
# T2 construct: Exponentially proliferating M1 cells cultured in RPMI medium; endogenous in cells; host or cells: M1 cells
# T2 sequence (P42227 whole entry): as the sequence (P40763 whole entry) above, with E760D counted along it
# Method: Exponentially proliferating M1 cells cultured in RPMI medium supplemented with 10% fetal calf serum (FCS) in culture dish were treated with dimethyl sulfoxide (DMSO) and Compound No. 1, 2, 7, 10, 13, 14 or 16 at a final concentration of 10 μM for 30 minutes. Then, the cells were divided into two equal parts and incubated with or without murine IL-6 at a final concentration of 10 ng/ml for further 1 hour. Then, the M1 cells were suspended at a density of 1×10^7 cells/ml in lysis buffer (0.5% Triton X-100, 50 mM Tris-HCl, (pH7.5), 0.1 mM EDTA, 150 mM NaCl, 200 μM Na3VO4, 50 mM NaF, 1 mM dithiothreitol (DTT), 0.4 mM phenylmethylsulfonyl fluoride (PMSF), 3 μg/mL aprotinin, 2 μg/mL pepstatin A, 1 μg/mL leupeptin) and placed on ice for 30 minutes. The precipitate was removed by centrifuging the cell lysate at 12000 g for 15 minutes.
# The samples thus obtained were separated by sodium dodecyl sulfate-polyacrylamide gel electrophoresis (SDS-PAGE). After the electrophoresis, the gel was placed on a PVDF transfer membrane prewetted in methanol for 10-20 seconds and then soaked in transfer buffer (25 mM tris, 192 mM glycine, 10% methanol, 0.1% SDS), and the assembly was sandwiched between two layers each consisting of 5 sheets of filter paper soaked in transfer buffer, whereby proteins were transferred to the transfer membrane using a semi-dry transfer method.
# After transfer, the transfer membrane was shaken in blocking buffer (5% BSA, 1% BSA, 0.1% NaN3) for 30 minutes or more. Then, the membrane was washed with PBST (137 mM NaCl, 2.7 mM KCl, 1.5 mM KH2PO4, 8.1 mM Na2HPO4, 0.05% Tween20) three times for 5 minutes by shaking. The membrane was shaken for 60 minutes in an anti-STAT3 polyclonal antibody (C-20, Santa Cruz Biotechnology, Santa Cruz, Calif.) and an anti-phosphorylated STAT3 monoclonal antibody (B-7, Santa Cruz Biotechnology) as primary antibodies both diluted 1:1000 in PBST.
# Then, the membrane was washed with PBST three times for 5 minutes by shaking. […]
# STAT3 [3] = target: T1, STAT3; test: Western blotting of IL-6-induced tyrosine phosphorylation of STAT3 in 293T cells; format: cell-based; details: 20 μM for 1 hour, then IL-6 10 ng/ml for 16 hours
# Method: Exponentially proliferating 293T cells cultured in Dulbecco's Modified Eagle's Medium (DMEM) supplemented with 10% fetal calf serum (FCS) in culture dish were incubated with dimethyl sulfoxide (DMSO) and Compounds No. 1, 2, 4, 7, 10, 13, 14 or 16 at a final concentration of 20 μM for 1 hour. Then, the cells were divided into two equal parts and incubated with or without murine IL-6 at a final concentration of 10 ng/ml for further 16 hours. Then, the 293T cells were suspended at a density of 1×10^7 cells/ml in lysis buffer, and placed on ice for 30 minutes. The precipitate was removed by centrifuging the cell lysate at 12000 g for 15 minutes.
# The subsequent Western blot step was performed by the method described above.
structure (smiles),measurement,setting,value
Br.O=[N+]([O-])c1ccc(-c2csc(Nc3cc(C(F)(F)F)cc(C(F)(F)F)c3)n2)cc1 [Compound No. 1],inhibition of IL-6-dependent proliferation of KT-3 cells,KT-3 cells,inhibition of cell proliferation
Br.O=[N+]([O-])c1ccc(-c2csc(Nc3cc(C(F)(F)F)cc(C(F)(F)F)c3)n2)cc1 [Compound No. 2],influence on the phosphorylation of ERK1/2 induced by IL-6,ERK1/2,no influence
same,inhibitory effect on the transcriptional activity of STAT3,STAT3 [1],obvious inhibitory effect
same,inhibition of tyrosine phosphorylation of STAT3 (time course),"STAT3 [2]; murine IL-6 10 ng/ml, at 3, 6, and 24 hours after the compound was added",obvious inhibition
same,inhibition of tyrosine phosphorylation of STAT3,STAT3 [3],obvious inhibition
Br.O=[N+]([O-])c1ccc(-c2csc(Nc3cc(C(F)(F)F)cc(C(F)(F)F)c3)n2)cc1 [compound 13],inhibition of tyrosine phosphorylation of STAT3,"STAT3 [2]; 10 μM for 30 minutes, then murine IL-6 10 ng/ml for 1 hour",obvious inhibition
same,inhibition of tyrosine phosphorylation of STAT3 (time course),"STAT3 [2]; 10 μM, IL-6 10 ng/ml, at 3 hours or later after the compounds were added",inhibition
